Measured values as given in patent US20130338220A1, “COMPOSITIONS, DOSAGES, AND METHODS OF USING TETRAHYDROCANNABINOL DERIVATIVES” (priority 2010, published 2013).

Assays:
[1] = multiple ascending dose study of immediate release ajulemic acid three times a day, adverse events; format: in vivo, human
Method: FIG. 2 is a graph of the concentration of ajulemic acid as a function of time in a multiple ascending dose study in human subjects of ajulemic acid administered in an immediate release formulation three times a day (6-6-12 hours). For the 80<=60 mg data, the first four doses were 80 mg and all remaining doses were 60 mg.
(§1) Administration of immediate release formulations of the THC derivative ajulemic acid may result in adverse events. Representative pharmacokinetic data for administration of ajulemic acid in immediate release form is shown in FIG. 1 (single ascending dose) and 2 (multiple ascending dose). The data in FIG. 2 are based on greater sampling days 1 and 7. In the single dose study, adverse events were observed when 80 mg or higher was administered. In the multiple dose study, adverse events were observed when 40, 60, and 80 mg was administered three times a day. In the single ascending dose study in fasted subjects, the most frequently occurring adverse events were dizziness (33.3%); nausea (20.8%); vomiting (14.6%); pallor (12.5%); dry mouth; headache; somnolence; tremor; and disorientation (10.4%). Other adverse events include tachycardia, fatigue, feeling drunk, paraesthesia, and euphoric mood (6.3%); and muscle spasms, muscle tightness, disturbance in attention, deja vu, and altered mood (4.2%). In the multiple ascending dose study, the most frequently occurring adverse events were dizziness (38.9%); nausea and somnolence (16.7%); and dry mouth, fatigue, feeling abnormal, anorexia, inappropriate affect, and orthostatic hypotension (11.1%).

[2] = single ascending dose study of immediate release ajulemic acid, adverse events; format: in vivo, human
Excerpt: FIG. 1 is a graph of the dose proportionality of Cmax and AUC0-24 in a single dose study in human subjects of immediate release ajulemic acid.
as §1

[3] = single ascending dose, fasted subjects

## CCCCCCC(C)(C)c1cc(O)c2c(c1)OC(C)(C)[C@@H]1CC=C(C(=O)O)C[C@@H]21 [ajulemic acid, (6aR,10aR)-3-(1,1-dimethylheptyl)-Δ8-tetrahydro-cannabinol-9-carboxylic acid]
[1]
  adverse event frequency: anorexia: 11.1%
  adverse event frequency: dizziness: 38.9%
  adverse event frequency: dry mouth: 11.1%
  adverse event frequency: fatigue: 11.1%
  adverse event frequency: feeling abnormal: 11.1%
  adverse event frequency: inappropriate affect: 11.1%
  adverse event frequency: nausea: 16.7%
  adverse event frequency: orthostatic hypotension: 11.1%
  adverse event frequency: somnolence: 16.7%
[2]; [3]
  adverse event frequency: altered mood: 4.2%
  adverse event frequency: deja vu: 4.2%
  adverse event frequency: disorientation: 10.4%
  adverse event frequency: disturbance in attention: 4.2%
  adverse event frequency: dizziness: 33.3%
  adverse event frequency: dry mouth: 10.4%
  adverse event frequency: euphoric mood: 6.3%
  adverse event frequency: fatigue: 6.3%
  adverse event frequency: feeling drunk: 6.3%
  adverse event frequency: headache: 10.4%
  adverse event frequency: muscle spasms: 4.2%
  adverse event frequency: muscle tightness: 4.2%
  adverse event frequency: nausea: 20.8%
  adverse event frequency: pallor: 12.5%
  adverse event frequency: paraesthesia: 6.3%
  adverse event frequency: somnolence: 10.4%
  adverse event frequency: tachycardia: 6.3%
  adverse event frequency: tremor: 10.4%
  adverse event frequency: vomiting: 14.6%
[2]; single dose study
  dose at which adverse events were observed: ≥ 80 mg
